Patent publication US11225460B2, “Pyrrolidineamide derivatives and uses thereof” (SUNSHINE LAKE PHARMA CO., LTD., priority 2019, dated 2022)

Key:
[1] = biological target: T1, Human recombinant monoamine oxidase B (Homo sapiens, UniProt P27338); test: Inhibitory effect on the activity of monoamine oxidase B; type: biochemical; details: human recombinant MAO-B, substrate benzylamine hydrochloride
T1 construct: host or cells: Sf9 cells
T1 sequence (P27338 1-520): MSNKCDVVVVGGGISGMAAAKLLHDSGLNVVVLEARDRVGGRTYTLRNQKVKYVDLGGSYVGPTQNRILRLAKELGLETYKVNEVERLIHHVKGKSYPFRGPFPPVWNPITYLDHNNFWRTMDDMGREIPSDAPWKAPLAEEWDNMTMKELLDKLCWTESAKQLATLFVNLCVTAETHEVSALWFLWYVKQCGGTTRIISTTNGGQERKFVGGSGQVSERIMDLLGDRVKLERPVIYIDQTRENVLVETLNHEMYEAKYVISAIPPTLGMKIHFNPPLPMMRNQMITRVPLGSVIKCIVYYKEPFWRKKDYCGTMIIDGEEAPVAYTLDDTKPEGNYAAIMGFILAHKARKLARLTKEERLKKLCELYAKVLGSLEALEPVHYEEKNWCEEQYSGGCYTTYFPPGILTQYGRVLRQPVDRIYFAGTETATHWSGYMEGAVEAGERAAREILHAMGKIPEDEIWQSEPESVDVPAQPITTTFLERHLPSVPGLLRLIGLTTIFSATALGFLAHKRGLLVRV
Method: Human recombinant monoamine oxidase B expressed in Sf9 cells was used in the test system. In the experiment, firstly, the recombinant monoamine oxidase B was dissolved in the pre-configured HEPES buffer (0.8% NaCl, 0.037% KCl, 0.0135% Na2HPO4.2H2O, 0.1% Glucan, 0.5% HEPES, pH=7.0) at a concentration of 0.3 μg/μL. To each well of a 384-well plate was added 10 μL of monoamine oxidase B solution, and the test compound with different concentrations (the final concentration of DMSO was 1%) (10 gradient concentrations were 10 mM, 1 mM, 100 μM, 10 μM, 1 μM, 100 nM, 10 nM, 1 nM, 0.1 nM, 0.01 nM) were added into the wells respectively. The standard reference compound was R-(−)-Deprenyl, the plate was incubated at room temperature for 15 min. Then, each well filled with 10 μL substrate solution (Benzylamine hydrochloride, 1 mM) was incubated at room temperature for 60 min. Then 20 μL of fluorescein detection reagent was added to each well, which was fully blended and incubated at room temperature for 20 minutes to produce stable fluorescence signal. The fluorescence signal was read by fluorescein labeling instrument, and the value was expressed by relative light intensity (RLU). The inhibitory rate on enzyme activity was calculated according to the experimental results, the calculated formula: Inh %=(Max−Signal)/(Max−Min)*100, wherein Max was the detected value at the maximum concentration of the sample, Min was the detected value at the minimum concentration of the sample, and Signal was the detected value at the current concentration of the sample.
(§1) The standard curve was obtained through the series concentration by experimental test to calculate the IC50.

[2] = Pharmacokinetic evaluation after intravenous or gavage administration in rats; type: in vivo, SD rats
Method: The LC-MS/MS system comprises Agilent 1200 series vacuum degassing furnace, quaternary pumps, well-plate autosampler, thermostatted column compartment, the API4000Qtrap Triple Quadrupole Mass Spectrometer with an electrospray ionization (ESI) source. Quantitative analysis was carried out using MRM mode. The parameters for MRM transitions are in Table 2.
Analysis was carried out on waters xbridge C18 (2.1×50 mm, […] column, 0.5 μL of sample), the analytic conditions are mobile phases cosisting of water+2 mM ammonium formate+0.1% formic acid (Phase A) and methanol+2 mM ammonium formate+0.1% formic acid (Phase B). The flow rate was 0.4 mL/min. And the gradient of Mobile phase was in Table 3.
Each animal species was divided into two groups: one was administered intravenously and the other was administered intragastrically. The compounds disclosed herein were administered in form of a solution containing 5% DMSO+5% Kolliphor HS15+90% Saline. For the group of intravenous administration, the administration dose was 1 mg/kg, and vein blood samples (0.3 ml) were collected at the time points of 0.083, 0.25, 0.5, 1.0, 2.0, 4.0, 6.0, 8.0 and 24 h after drug administration, then plasma solutions were collected by centrifuging each blood sample at 3000 rpm or 4000 rpm for 10 minutes and kept at −20° C. or −70° C. For the group of intragastric administration, the administration dose was 5 mg/kg, and vein blood samples (0.3 mL) were collected at the time points of 0.25, 0.5, 1.0, 2.0, 4.0, 6.0, 8.0 and 24 h after drug administration, then plasma solutions were collected by centrifuging each blood sample at 3000 rpm or 4000 rpm for 10 minutes and kept at −20° C. or −70° C.
20 μL of plasma was blended with 120 μl, 50 ng/ml propranolol standard water solution, then the mixture was extracted with 1.0 mL methyl tert-butyl ether (MTBE), 0.7 mL of supernatant was dried by blow with nitrogen and then dissolved again with 220 μL methanol water (methanol/water (v/v)=1/1). LC-MS/MS method was used to detect the concentration of the target compounds, and […] was used to calculate the pharmacokinetic parameters.

[3] = biological target: T2, Human recombinant monoamine oxidase A (Homo sapiens, UniProt P21397); test: Inhibitory effect on the activity of monoamine oxidase A; type: biochemical; details: human recombinant MAO-A, substrate p-tyramine hydrochloride
T2 construct: host or cells: Sf9 cells
T2 sequence (P21397 1-527): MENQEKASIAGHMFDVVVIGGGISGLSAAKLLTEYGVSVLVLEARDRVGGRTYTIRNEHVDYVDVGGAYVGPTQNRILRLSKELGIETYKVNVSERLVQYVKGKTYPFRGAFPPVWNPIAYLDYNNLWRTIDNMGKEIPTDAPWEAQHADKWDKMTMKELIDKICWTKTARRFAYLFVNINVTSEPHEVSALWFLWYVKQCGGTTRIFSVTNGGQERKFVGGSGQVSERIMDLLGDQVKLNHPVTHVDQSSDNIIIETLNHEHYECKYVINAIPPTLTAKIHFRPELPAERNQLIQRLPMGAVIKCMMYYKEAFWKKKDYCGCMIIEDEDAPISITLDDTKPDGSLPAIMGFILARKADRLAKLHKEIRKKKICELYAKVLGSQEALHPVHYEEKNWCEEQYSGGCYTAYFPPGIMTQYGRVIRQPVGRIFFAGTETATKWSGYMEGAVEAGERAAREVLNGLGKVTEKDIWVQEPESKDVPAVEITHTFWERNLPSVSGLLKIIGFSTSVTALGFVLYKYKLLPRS
Method: Human recombinant monoamine oxidase A expressed in Sf9 cells was used in the test system. In the experiment, firstly, the recombinant monoamine oxidase A was dissolved in the pre-configured HEPES buffer (0.8% NaCl, 0.037% KCl, 0.0135% Na2HPO4.2H2O, 0.1% Glucan, 0.5% HEPES, pH=7.0) at a concentration of 0.3 μg/μL. To each well of a 384-well plate was added 10 μL of monoamine oxidase A solution, and the test compound with different concentrations (the final concentration of DMSO was 1%) (10 gradient concentrations were 10 mM, 1 mM, 100 μM, 10 μM, 1 μM, 100 nM, 10 nM, 1 nM, 0.1 nM, 0.01 nM) were added into the wells, respectively. The standard reference compound was Clorgyline, the plate was incubated at room temperature for 15 min. Then, each well filled with […] (p-Tyramine hydrochloride, 1 mM) was incubated at room temperature for 60 min. Then 20 μL of fluorescein detection reagent was added to each well, which was fully blended and incubated at room temperature for 20 minutes to produce stable fluorescence signal. The fluorescence signal was read by fluorescein labeling instrument, and the value was expressed by relative light intensity (RLU). The inhibitory rate on enzyme activity was calculated according to the experimental results, the calculated formula: Inh %=(Max−Signal)/(Max−Min)*100, wherein Max was the detected value at the maximum concentration of the sample, Min was the detected value at the minimum concentration of the sample, and Signal was the detected value at the current concentration of the sample.
as §1

[4] = SD, rat, plasma, iv, i.v group, 1 mg/kg
[5] = SD, rat, plasma, po, i.g group, 5 mg/kg

CC1(C)C[C@@H](C(N)=O)N(Cc2ccc(OCc3cccc(F)c3)cc2)C1 [Example 8, (S)-1-(4-(3-fluorobenzyloxy)benzyl)-4,4-dimethylpyrrolidine-2-formamide]
IC50 [1]: 1400 nM

NC(=O)[C@@H]1CC(F)(F)CN1Cc1ccc(OCc2cccc(F)c2)cc1 [Example 10, (S)-4,4-difluoro-1-(4-(3-fluorobenzyloxy)benzyl)pyrrolidine-2-formamide]
IC50 [1]: 1100 nM

NC(=O)[C@@H]1CC(F)(F)CN1Cc1ccc(OCc2cccc(F)c2)cc1F [Example 11, (S)-4,4-difluoro-1-(2-fluoro-4-(3-fluorobenzyloxy)benzyl) pyrrolidine-2-formamide]
IC50 [1]: 2200 nM

NC(=O)[C@@H]1C[C@@H](F)CN1Cc1ccc(OCc2cccc(F)c2)cc1 [Example 12, (2S,4R)-4-fluoro-1-(4-(3-fluorobenzyloxy)benzyl)pyrrolidine-2-formamide]
IC50 [1]: 720 nM
AUC(0-inf) [2, 4]: 453 ng·h/mL
AUC(0-t) [2, 4]: 452 ng·h/mL
Cmax [2, 4]: 661 ng/mL
MRT inf [2, 4]: 40 min
Tmax [2, 4]: 4.98 min
clearance [2, 4]: 36.8 mL/min/kg
half-life [2, 4]: 37 min
AUC(0-inf) [2, 5]: 1830 ng·h/mL
AUC(0-t) [2, 5]: 1820 ng·h/mL
Cmax [2, 5]: 1010 ng/mL
MRT inf [2, 5]: 78.6 min
Tmax [2, 5]: 20 min
half-life [2, 5]: 39.1 min
F ([2]; i.g group, 5 mg/kg): 80.7%

C[C@H]1C[C@@H](C(N)=O)N(Cc2ccc(OCc3cccc(F)c3)cc2)C1 [Example 14, (2S,4S)-1-(4-(3-fluorobenzyloxy)benzyl)-4-methylpyrrolidine-2-formamide]
IC50 [1]: 83 nM
IC50 [3]: 27000 nM

C[C@H]1C[C@@H](C(N)=O)N(Cc2ccc(OCc3cccc(F)c3)cc2F)C1 [Example 15, (2S,4S)-1-(2-fluoro-4-(3-fluorobenzyloxy)benzyl)-4-methylpyrrolidine-2-formamide]
IC50 [1]: 130 nM
IC50 [3]: 29000 nM
